Experimental data as given in US20260355192A1, “PROPHYLACTIC OR THERAPEUTIC AGENT FOR PERIOSTIN-MEDIATED DISEASE AND PRURITUS ASSOCIATED THEREWITH” (SAGA UNIVERSITY, priority 2022, published 2026).

Experiments:
[1] = test system: scratching behaviors in FADS mice; assay: Scratching behaviors in FADS mice upon single systemic administration of αvβ3 integrin inhibitors; type: in vivo, mouse (FADS, Nestin-cre/Ikk2ff); details: for % Change from baseline in the number of scratchings (mean ± standard error): single, 60 minutes after administration vs before administration
Text: Nestin-cre transgenic mice were crossed with IKK2^ff mice to prepare Nestin-cre/Ikk2^ff mice specifically lacking IKK2 in their facial skin fibroblasts (Nunomura S, et al. J Invest Dermatol. 139:1274-1283, 2019). These mice inevitably develop atopic dermatitis-like rash limited to the face and intense itchy symptoms, and were therefore designated as Facial Atopic Dermatitis with Scratching (FADS) mice. […] For evaluation of the prophylactic or therapeutic agent of the present invention, FADS mice at 3 to 4 weeks of age or older were used because of showing spontaneous scratching behaviors. It should be noted that in this Example section, the above compound of formula (I) (more particularly “CP4715”) was used as the prophylactic or therapeutic agent of the present invention.
FADS mice were acclimated for 20 minutes to the environment of a recording cage, and then recorded with a video camera. The recorded videos were replayed, and scratching behaviors were counted assuming that hind paw scratching to the face and the subsequent movement of toe licking or paw lowering to the ground were regarded as one cycle of scratching behavior.
(§1) Prior to the administration of the above αvβ3 integrin inhibitors, FADS mice were recorded for 60 minutes with a video camera and then allowed to rest for 15 minutes. The compounds except for GLPG-0187 were each dissolved at 89.5 mM in a diluent (physiological saline containing 50% DMSO and 89.5 mM HCL), from which an amount corresponding to 53.7 μmol/kg per mouse was then taken and diluted with 0.3 mL of PBS, and then administered intraperitoneally. […] Mice administered with 0.3 mL of PBS containing an equal amount of the diluent as calculated based on the body weight were used as a control group.
The mice were recorded for 60 minutes with a video camera immediately after administration of the above αvβ3 integrin inhibitors. The number of scratchings before administration was used as a baseline, and % change from the baseline after administration was calculated for each compound. For statistical analysis, paired t-test was used. A P-value of less than 0.05 was considered to be statistically significant. The effect of an inhibitor whose mean change from the baseline was −65% or more at a P-value of less than 0.01 was expressed as “++”; the effect of an inhibitor whose mean change from the baseline was −60% or less at a P-value of less than 0.05 was expressed as “+”; and the effect of an inhibitor whose mean change from the baseline was −60% or less at a P-value of 0.05 or higher was expressed as “−.”

integrin αvβ3 [2] = target: T1, integrin αvβ3 (Homo sapiens, UniProt P05106+P06756); assay: Inhibition of periostin-dependent adhesion of SW480 cells expressing integrin αvβ3; type: cell-based; details: immobilized recombinant human periostin, FIG. 6; for IC50: SW480 cells expressing human integrin β3, compounds at 0.001-1 μM, read-out: 50% inhibition concentration (IC50 value) for cell adhesion inhibitory activity; for cell adhesion inhibitory effect (in words): SW480 cells expressing integrin αvβ3
T1 construct: SW480 cells, a human colon cancer cell line not expressing integrin β3; expressed in transfected cells; host or cells: SW480 cells (human colon cancer) stably expressing human integrin β3
Description: For use in cell adhesion experiments, SW480 cells, a human colon cancer cell line not expressing integrin β3, were genetically engineered to stably express human integrin β3 (Nanri Y, et al. Am J Respir Cell Mol Biol. 62:204-216, 2020). The compounds shown in Table 1 were examined for their inhibitory activity against adhesion between integrin αvβ3 and periostin according to the following procedures. First, a 96-well plate was treated with 10 μg/mL recombinant human periostin (Bio-Techne) at 4 °C for 16 hours to immobilize periostin. The SW480 cells expressing integrin αvβ3 (5×10^4 cells) were reacted at room temperature for 15 minutes with the above compounds at 0.001, 0.01, 0.1 and 1 μM in serum-free DMEM (Dulbecco's Modified Eagle Medium) containing 0.5% bovine serum albumin and 0.25 mM MnCl2. A group receiving no compound was used as a control. The reacted cell suspensions were added to separate wells of the above human periostin-immobilized plate, and the plate was centrifuged at 10×g for 5 minutes and then cultured at 37 °C for 60 minutes. Then, after the adhered cells were washed to remove unbound cells, the adhered cells were fixed with 1% formaldehyde and stained with 0.5% crystal violet. The fixed and stained cells were solubilized with 0.2% Triton X-100 and measured for absorbance at 595 nm. The absorbance of the control (i.e., the group receiving no compound) was set to 0% inhibition. […] Cell adhesion in this test system is periostin-dependent, and a compound inhibiting this cell adhesion can be referred to as a periostin receptor antagonist.

integrin αvβ3 [3] = details: cited from earlier work
integrin αvβ3 [4] = details: Nanri Y, et al. 2020; cited from earlier work
[5] = Solubility in the diluent; type: physicochemical; details: diluent: physiological saline containing 50% DMSO and 89.5 mM HCl
Description: as §1

scratching behaviors = details: intracutaneous or subcutaneous administration; Non-patent Document 2; cited from earlier work

T1 sequence (P06756 31-889 limits assumed): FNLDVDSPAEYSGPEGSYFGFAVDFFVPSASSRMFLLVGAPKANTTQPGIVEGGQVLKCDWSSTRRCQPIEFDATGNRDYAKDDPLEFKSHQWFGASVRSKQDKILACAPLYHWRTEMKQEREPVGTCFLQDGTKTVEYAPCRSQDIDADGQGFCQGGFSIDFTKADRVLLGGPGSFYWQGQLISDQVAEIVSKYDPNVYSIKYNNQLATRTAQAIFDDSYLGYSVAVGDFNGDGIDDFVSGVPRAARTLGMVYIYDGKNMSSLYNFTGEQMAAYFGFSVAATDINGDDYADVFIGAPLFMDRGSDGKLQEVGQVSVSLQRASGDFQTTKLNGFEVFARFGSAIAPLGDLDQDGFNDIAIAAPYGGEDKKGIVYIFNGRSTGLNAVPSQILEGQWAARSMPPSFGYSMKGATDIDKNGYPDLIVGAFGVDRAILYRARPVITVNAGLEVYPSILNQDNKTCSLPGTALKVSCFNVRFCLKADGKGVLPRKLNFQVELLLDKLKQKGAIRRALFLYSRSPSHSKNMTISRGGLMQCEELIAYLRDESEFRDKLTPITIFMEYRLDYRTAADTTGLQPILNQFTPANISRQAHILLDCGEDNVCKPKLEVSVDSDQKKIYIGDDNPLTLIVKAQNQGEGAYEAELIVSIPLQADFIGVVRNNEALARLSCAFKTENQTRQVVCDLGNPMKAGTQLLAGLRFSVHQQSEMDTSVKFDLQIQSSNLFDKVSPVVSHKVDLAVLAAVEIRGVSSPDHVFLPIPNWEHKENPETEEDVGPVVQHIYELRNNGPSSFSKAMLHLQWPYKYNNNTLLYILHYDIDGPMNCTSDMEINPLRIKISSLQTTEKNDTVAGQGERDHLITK
T1 sequence (P06756 891-1048 partner limits assumed): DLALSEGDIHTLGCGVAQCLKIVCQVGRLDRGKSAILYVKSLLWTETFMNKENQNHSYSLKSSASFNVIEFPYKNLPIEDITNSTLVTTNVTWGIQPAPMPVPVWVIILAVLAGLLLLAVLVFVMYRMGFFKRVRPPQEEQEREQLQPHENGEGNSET
T1 sequence (P05106 27-788): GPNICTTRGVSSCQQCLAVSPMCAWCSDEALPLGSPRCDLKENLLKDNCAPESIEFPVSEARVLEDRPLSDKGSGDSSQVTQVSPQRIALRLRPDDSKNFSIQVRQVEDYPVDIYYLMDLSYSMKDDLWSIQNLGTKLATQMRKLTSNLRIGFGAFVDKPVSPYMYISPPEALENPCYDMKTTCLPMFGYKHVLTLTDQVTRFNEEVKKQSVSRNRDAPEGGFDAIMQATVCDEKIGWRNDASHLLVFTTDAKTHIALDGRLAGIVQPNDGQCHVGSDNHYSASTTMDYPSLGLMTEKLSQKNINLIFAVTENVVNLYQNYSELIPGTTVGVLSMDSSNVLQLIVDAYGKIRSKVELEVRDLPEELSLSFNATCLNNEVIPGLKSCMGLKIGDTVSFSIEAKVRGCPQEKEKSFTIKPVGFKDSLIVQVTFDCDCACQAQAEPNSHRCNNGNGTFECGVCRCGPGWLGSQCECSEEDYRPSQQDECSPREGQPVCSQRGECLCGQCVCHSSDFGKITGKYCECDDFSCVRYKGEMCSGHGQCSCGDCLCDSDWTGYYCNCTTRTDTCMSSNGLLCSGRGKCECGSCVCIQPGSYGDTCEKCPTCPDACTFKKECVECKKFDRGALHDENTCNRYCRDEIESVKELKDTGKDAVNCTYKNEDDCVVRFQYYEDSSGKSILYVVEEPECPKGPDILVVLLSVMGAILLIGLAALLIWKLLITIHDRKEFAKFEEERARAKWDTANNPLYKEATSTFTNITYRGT

| IC50 (integrin αvβ3 [2]) | cell adhesion inhibitory effect (in words) (integrin αvβ3 [2]) | solubility [5] | Molecule | % Change from baseline in the number of scratchings (mean ± standard error) ([1]; 53.7 μmol/kg i.p.) | grade of effect on % change from the baseline in the number of scratchings ([1]; single i.p., 53.7 μmol/kg (GLPG-0187 5.37 μmol/kg), paired t-test) | inhibition of binding between integrin αvβ3 and vitronectin (integrin αvβ3 [3]) | inhibition of binding between integrin αvβ3 and periostin (integrin αvβ3 [4]) | % Change from baseline in the number of scratchings (mean ± standard error) ([1]; 5.37 μmol/kg i.p.) | induction of scratching behaviors (scratching behaviors) |
| --- | --- | --- | --- | --- | --- | --- | --- | --- | --- |
| ≤ 1 nM | high |  | O=C(NC[C@H](NS(=O)(=O)c1ccccc1)C(=O)O)c1ccc(N2CCC[C@H](NC3=NCCCN3)C2)cc1 [CP derivative 6, (S)-2-(Phenylsulfonamido)-3-(4-((S)-3-((1,4,5,6-tetrahydropyrimidin-2-yl)amino)piperidin-1-yl)benzamido)propanoic acid] | −77.8 ± 7.9% | ++ (mean change from the baseline was −65% or more at a P-value of less than 0.01) | inhibit binding | inhibit binding |  |  |
| ≤ 1 nM | high | low solubility | COc1ccc(S(=O)(=O)N[C@@H](CNc2nc(C)nc(N3CCC(c4ccc5c(n4)NCCC5)CC3)c2C)C(=O)O)cc1 [GLPG-0187, (S)-3-((2,5-dimethyl-6-(4-(5,6,7,8-tetrahydro-1,8-naphthyridin-2-yl)piperidin-1-yl)pyrimidin-4-yl)amino)-2-((4-methoxyphenyl)sulfonamido)propanoic acid] |  |  |  |  | −38.9 ± 31.2% |  |
|  |  |  | Periostin: extracellular matrix protein that binds to cell surface receptors belonging to the integrin family (protein, UniProt Q15063 22-836, looked up) Periostin: NNHYDKILAHSRIRGRDQGPNVCALQQILGTKKKYFSTCKNWYKKSICGQKTTVLYECCPGYMRMEGMKGCPAVLPIDHVYGTLGIVGATTTQRYSDASKLREEIEGKGSFTYFAPSNEAWDNLDSDIRRGLESNVNVELLNALHSHMINKRMLTKDLKNGMIIPSMYNNLGLFINHYPNGVVTVNCARIIHGNQIATNGVVHVIDRVLTQIGTSIQDFIEAEDDLSSFRAAAITSDILEALGRDGHFTLFAPTNEAFEKLPRGVLERIMGDKVASEALMKYHILNTLQCSESIMGGAVFETLEGNTIEIGCDGDSITVNGIKMVNKKDIVTNNGVIHLIDQVLIPDSAKQVIELAGKQQTTFTDLVAQLGLASALRPDGEYTLLAPVNNAFSDDTLSMDQRLLKLILQNHILKVKVGLNELYNGQILETIGGKQLRVFVYRTAVCIENSCMEKGSKQGRNGAIHIFREIIKPAEKSLHEKLKQDKRFSTFLSLLEAADLKELLTQPGDWTLFVPTNDAFKGMTSEEKEILIRDKNALQNIILYHLTPGVFIGKGFEPGVTNILKTTQGSKIFLKEVNDTLLVNELKSKESDIMTTNGVIHVVDKLLYPADTPVGNDQLLEILNKLIKYIQIKFVRGSTFKEIPVTVYTTKIITKVVEPKIKVIEGSLQPIIKTEGPTLTKVKIEGEPEFRLIKEGETITEVIHGEPIIKKYTKIIDGVPVEITEKETREERIITGPEIKYTRISTGGGETEETLKKLLQEEVTKVTKFIEGGDGHLFEDEEIKRLLQGDTPVRKLQANKKVQGSRRRLREGRSQ |  |  |  |  |  | induce scratching behaviors |
